In US4512976A, “Antibiotic stubomycin and process for the production thereof” (The Kitasato Institute, priority 1980, dated 1985):
In brackets after ≈: the same amount, converted by molar mass.

Legend:
[1] = system: Trichophyton interdigitalis; test: Antimicrobial activity, MIC by agar dilution method; type: cell-based
Xanthomonas oryzae = type: cell-based; conditions: agar dilution method
Escherichia coli NIHJ = test: Antimicrobial activity, MIC by agar dilution method; type: cell-based
[2] = system: Staphylococcus aureus FDA-209P; test: as above; type: cell-based
Piricularia oryzae = type: cell-based
Mycobacterium smegmatis = test: Antimicrobial activity, MIC by agar dilution method; type: cell-based
mice = test: Acute toxicity in mice; type: in vivo
Method: Acute toxicity (LD50) in mice; approximately 400 mg/kg (i.p.), and over 1000 mg/kg (p.o.)

Sarcina lutea ATCC 1001 = test: Antimicrobial activity, MIC by agar dilution method; type: cell-based; conditions: Sarcina lutea ATCC 1001, agar dilution method
Candida albicans = test: as above; type: cell-based
[3] = system: Ehrlich ascites carcinoma; test: Antitumor activity on Ehrlich ascites carcinoma; conditions: i.p.; for ILS (Increased life span) Ehrlich: vs untreated control
leukemia P388 = test: Antitumor activity on leukemia P388; conditions: i.p.; for ILS (Increased life span) P388: vs untreated control
Microsporum gypseum = test: Antimicrobial activity, MIC by agar dilution method; type: cell-based
Aspergillus niger = test: as above; type: cell-based
Saccharomyces sake = test: as above; type: cell-based
[4] = system: Bacillus subtilis PCI 219; test: as above; type: cell-based; conditions: Bacillus subtilis PCI 219, agar dilution method
Alternaria kikuchiana = test: as above; type: cell-based
Pseudomonas aeruginosa = test: as above; type: cell-based
[5] = Day 1, 75 mg/kg/day, total 75 mg/kg
[6] = Day 1, 150 mg/kg/day, total 150 mg/kg
[7] = Day 1, 300 mg/kg/day, total 300 mg/kg
[8] = Days 1, 5, 9, 25 mg/kg/day, total 75 mg/kg
[9] = Days 1, 5, 9, 50 mg/kg/day, total 150 mg/kg
[10] = Days 1~9, 8.8 mg/kg/day, total 75 mg/kg
[11] = Days 1~9, 16.7 mg/kg/day, total 150 mg/kg
[12] = Days 1~9, 33.3 mg/kg/day, total 300 mg/kg

CO[C@H]1C[C@@H]2\C=C(C)/C=C/C=C\C(=O)N[C@H](c3ccccc3)C/C=C/CC[C@H](O)CC(=O)C2=C1O [stubomycin]
Minimum inhibitory concentration (MIC) [1]: 6.3 µg/mL (≈ 13.2 µM) | Minimum inhibitory concentration (MIC) (Xanthomonas oryzae): > 100 µg/mL | Minimum inhibitory concentration (MIC) (Escherichia coli NIHJ): > 200 µg/mL | Minimum inhibitory concentration (MIC) [2]: 3.1 µg/mL (≈ 6.49 µM) | Minimum inhibitory concentration (MIC) (Piricularia oryzae): 3.1 µg/mL (≈ 6.49 µM) | Minimum inhibitory concentration (MIC) (Mycobacterium smegmatis): 3.1 µg/mL (≈ 6.49 µM) | Acute toxicity (LD50) (mice; i.p.): approximately 400 mg/kg | Acute toxicity (LD50) (mice; p.o.): over 1000 mg/kg | Minimum inhibitory concentration (MIC) (Sarcina lutea ATCC 1001): 0.4 µg/mL (≈ 0.838 µM) | Minimum inhibitory concentration (MIC) (Candida albicans): > 100 µg/mL | MSD (Median survival day) Ehrlich [3, 5]: 28 days | Number of cured mice, Ehrlich [3, 5]: 1 | ILS (Increased life span) Ehrlich [3, 5]: 47% | MSD (Median survival day) Ehrlich [3, 6]: 51 days | ILS (Increased life span) Ehrlich [3, 6]: 168% | MSD (Median survival day) Ehrlich [3, 7]: 21 days | ILS (Increased life span) Ehrlich [3, 7]: 11% | MSD (Median survival day) Ehrlich [3, 8]: 33 days | Number of cured mice, Ehrlich [3, 8]: 1 | ILS (Increased life span) Ehrlich [3, 8]: 74% | MSD (Median survival day) Ehrlich [3, 9]: 16 days | ILS (Increased life span) Ehrlich [3, 9]: -16% | ILS (Increased life span) Ehrlich [3, 10]: 11% | MSD (Median survival day) Ehrlich [3, 11]: 50 days | Number of cured mice, Ehrlich [3, 11]: 1 | ILS (Increased life span) Ehrlich [3, 11]: 163% | MSD (Median survival day) Ehrlich [3, 12]: 33 days | Number of cured mice, Ehrlich [3, 12]: 1 | ILS (Increased life span) Ehrlich [3, 12]: 74% | MSD (Median survival day) Ehrlich ([3]; Days 1~9, total 75 mg/kg): 21 days | MSD (Median survival day) P388 (leukemia P388; [5]): 17 days | ILS (Increased life span) P388 (leukemia P388; [5]): 42% | MSD (Median survival day) P388 (leukemia P388; [6]): 17 days | ILS (Increased life span) P388 (leukemia P388; [6]): 42% | MSD (Median survival day) P388 (leukemia P388; [7]): 17 days | ILS (Increased life span) P388 (leukemia P388; [7]): 42% | MSD (Median survival day) P388 (leukemia P388; [8]): 16 days | ILS (Increased life span) P388 (leukemia P388; [8]): 33% | MSD (Median survival day) P388 (leukemia P388; [9]): 15 days | ILS (Increased life span) P388 (leukemia P388; [9]): 25% | MSD (Median survival day) P388 (leukemia P388; [10]): 15 days | ILS (Increased life span) P388 (leukemia P388; [10]): 25% | MSD (Median survival day) P388 (leukemia P388; [11]): 11 days | ILS (Increased life span) P388 (leukemia P388; [11]): -8% | MSD (Median survival day) P388 (leukemia P388; [12]): 9 days | ILS (Increased life span) P388 (leukemia P388; [12]): -25% | Minimum inhibitory concentration (MIC) (Microsporum gypseum): 12.5 µg/mL (≈ 26.2 µM) | Minimum inhibitory concentration (MIC) (Aspergillus niger): > 100 µg/mL | Minimum inhibitory concentration (MIC) (Saccharomyces sake): > 200 µg/mL | Minimum inhibitory concentration (MIC) [4]: 0.4 µg/mL (≈ 0.838 µM) | Minimum inhibitory concentration (MIC) (Alternaria kikuchiana): 6.3 µg/mL (≈ 13.2 µM) | Minimum inhibitory concentration (MIC) (Pseudomonas aeruginosa): > 200 µg/mL
